According to patent US20230278958A1 (Merck Patent GmbH, priority 2020, published 2023):

How the values were obtained:
[1] = test system: YAP-TEAD interaction; assay: SK-HEP-1 reporter assay (8x TEAD responsive elements driving NanoLuc luciferase); format: cell-based; details: Homo sapiens, SK-HEP1; SK-HEP-1 TEAD-NanoLuc reporter cells, 24 hour incubation, luciferase readout
Method: To identify inhibitors of YAP-TEAD interaction, 8× TEAD responsive elements driving the NanoLuc® luciferase gene were stably integrated into SK-HEP-1 cells (ECACC #: 91091816).
For the assay, cells were treated in duplicates with the test compounds in a 10-point dose, with the top concentration starting at 30 μM (final concentration in assay). After a 24 hour incubation at 37° C., 95% rH, and 5% CO2, a luciferase substrate/lysis reagent mix (NanoGlo™, Promega) was added to the cells, allowing the quantification of cellular luciferase activity.
Cell Media: The cells were cultured in the following media: MEM, +10% FBS, +1× GlutaMAX, +1 mM Sodium-Pyruvate, +100 μM Non-essential amino acids, +0.1 mg/ml Hygromycin. The media used for the assay was: MEM (w/o Phenol Red), +10% FBS, +1× GlutaMAX, +1 mM Sodium-Pyruvate, +100 μM Non-essential amino acids, +0.5% Pen/Strep
(§1) Reagents: The reagents used are listed below:
(§2) Cell culture: The cells were examined using an inverted microscope to check for health and cell density. To dissociate adherent cells, the monolayer of cells was washed once with pre-warmed PBS. After removing the PBS, 3 ml pre-warmed Accutase® was added to a F75 flask, dispersed evenly and the flask was allowed to sit in incubator for ˜4-5 minutes.
(§3) When a single cell suspension was obtained, 7 ml of prewarmed growth media was added and resuspended with the cells. The cell suspension was transferred to a sterile 15 ml conical centrifuge tube, and spun for 5 min at 300×g, RT. The supernatant was discarded and the pellet was resuspended in 10 ml of pre-warmed growth media.
(§4) The total cell count was determined, and 20 μl of the desired cell number was added to each well of a 384 well plate using a Multidrop Combi. The plates were then incubated for 24 hours at 37° C., 95% rH, and 5% CO2.
(§5) Compound treatment: 24 hours after seeding, the cells were treated with compounds.
(§6) A 1:333 dilution of compounds, diluted in DMSO, was made to get a final concentration of 0.3% DMSO per well. To transfer the compounds to the assay plate, 120 nl was shot from Labcyte low dead volume plates to the cell plates containing 20 μl media/well with the ECHO 555 liquid handling system.
(§7) After treatment, the cells were fed with 20 μl fresh pre-warmed assay media using a Multidrop combi.
The assay plates were then incubated for another 24 h at 37° C., 95% rH, and 5% CO2.
Luciferase readout: 24 h after treatment, the plates were taken out of the incubator and were allowed to equilibrate to RT. 30 μl of NanoGlo® reagent was added to the plates in the dark. Plates were shaken for 20 min on a Teleshake (˜1500 rpm) in the dark. The luminescence was then measured using an EnVision microplate reader. The IC50 values were generated using Genedata Screener®.
Experimental data in SK-HEP-1 reporter assay of the compounds shown in Table 1 are shown in Table 2 below and classified in the following groups: […]

[2] = test system: NCI-H226 cells; assay: Viability assay in NCI-H226 (Yap-dependent) cells, CyQUANT; format: cell-based; details: Homo sapiens, 96 hour incubation
Method: The ability of YAP-TEAD inhibitors to inhibit tumor cell growth was evaluated using two different cell lines: NCI-H226, which is a YAP dependent cell line, and SW620 cells, where YAP and TAZ were knocked out using CRISPR to generate a YAP independent cell line.
For the assay, cells were treated in duplicates with the test compounds in a 10-point dose, 1:3 dilution steps, with the top concentration starting at 30 μM (final concentration in assay). After a 96 hour incubation at 37° C., 95% rH, and 5% CO2, a cell-permeant DNA-binding dye that stains only healthy cells (CyQUANT®, Promega) was added to the cells, allowing the quantification of cell viability.
Cell Media: The NCI-H226 cells were cultured in the following media: RPMI 1640, +10% FBS, +1× GlutaMAX, +10 mM HEPES, +0.5% Pen/Strep. The SW620-KO cells were cultured in the following media: DMEM/F-12, +10% FBS, +1× GlutaMAX, +10 mM HEPES, +0.5% Pen/Strep.
as §1
as §2, with “health,” for “health and”, “density, etc.” for “density.”, “Accutase” for “Accutase®”
as §3, §4, §5, §6, §7
The assay plates were then incubated for 96 h at 37° C., 95% rH, and 5% CO2.
96h after treatment 30 μl of CyQuant® reagent was added to the assay plates using a Multidrop combi in the dark. The plates were then incubated for 1 hour at 37° C., 95% rH and 5% CO2. Thereafter, the assay plates were removed from the incubator and allowed to equilibrate to RT for 30 min in the dark without lid. Finally, they were measured using an EnVision microplate reader with a FITC bottom read program.
Experimental data in the Viability assay of the compounds shown in Table 1 are shown in Table 3 below and classified in the following groups: […]

SMILES	IC50 [1] [µM]	IC50 [2] [µM]
Cc1ccc2c(c1)c1cc(C(=O)NC(C)CO)ccc1n2-c1ccc(C(F)(F)F)cc1 (stereo not drawn) [Compound 39, N-(1-hydroxypropan-2-yl)-6-methyl-9-[4-(trifluoromethyl)phenyl]-9H-carbazole-3-carboxamide]	0.01 to 0.1	0.001 to 0.1
Cc1ccc2c(c1)c1cc(C(=O)NCC(C)O)ccc1n2-c1ccc(C(F)(F)F)cc1 (stereo not drawn) [Compound 40, N-(2-hydroxypropyl)-6-methyl-9-[4-(trifluoromethyl)phenyl]-9H-carbazole-3-carboxamide]	0.01 to 0.1	0.001 to 0.1
Cc1ccc2c(c1)c1cc(C(=O)NC(CO)C(C)C)ccc1n2-c1ccc(C(F)(F)F)cc1 (stereo not drawn) [Compound 41, N-(1-hydroxy-3-methylbutan-2-yl)-6-methyl-9-[4-(trifluoromethyl)phenyl]-9H-carbazole-3-carboxamide]	0.1 to 1	0.1 to 1
CCC(CO)NC(=O)c1ccc2c(c1)c1cc(C)ccc1n2-c1ccc(C(F)(F)F)cc1 (stereo not drawn) [Compound 42]	0.01 to 0.1	0.001 to 0.1
Cc1ccc2c(c1)c1cc(C(=O)NCC(C)(C)O)ccc1n2-c1ccc(C(F)(F)F)cc1 [Compound 43, N-(2-hydroxy-2-methylpropyl)-6-methyl-9-[4-(trifluoromethyl)phenyl]-9H-carbazole-3-carboxamide]	0.1 to 1	0.1 to 1
Cc1ccc2c(c1)c1cc(C(=O)NCCn3ccnc3)ccc1n2-c1ccc(C(F)(F)F)cc1 [Compound 44, 6-Methyl-9-(4-trifluoromethyl-phenyl)-9H-carbazole-3-carboxylic acid (2-imidazol-1-yl-ethyl)-amide]	0.1 to 1	0.1 to 1
Cc1ccc2c(c1)c1cc(C(=O)NCc3nccn3C)ccc1n2-c1ccc(C(F)(F)F)cc1 [Compound 45]	0.1 to 1	0.1 to 1
Cc1ccc2c(c1)c1cc(C(=O)N[C@](C)(CO)c3ccccc3)ccc1n2-c1ccc(C(F)(F)F)cc1 [Compound 46, N-[(2S)-1-hydroxy-2-phenylpropan-2-yl]-6-methyl-9-[4-(trifluoromethyl)phenyl]-9H-carbazole-3-carboxamide]	0.1 to 1	0.1 to 1
CCc1ccc2c(c1)c1cc(C(=O)O)ccc1n2-c1ccc(C(F)(F)F)cc1 [Compound 47, 6-ethyl-9-[4-(trifluoromethyl)phenyl]-9H-carbazole-3-carboxylic acid]	0.001 to 0.01	0.001 to 0.1
Cc1ccc2c(c1)c1cc(C(N)=O)ccc1n2-c1ccc(C(F)(F)F)cc1 [Compound 48, 6-methyl-9-[4-(trifluoromethyl)phenyl]-9H-carbazole-3-carboxamide]	0.01 to 0.1	0.1 to 1
Cc1ccc2c(c1)c1cc(C(=O)N3CCC(O)C3)ccc1n2-c1ccc(C(F)(F)F)cc1 (stereo not drawn) [Compound 49, 1-{6-methyl-9-[4-(trifluoromethyl)phenyl]-9H-carbazole-3-carbonyl}pyrrolidin-3-ol]	0.1 to 1	0.1 to 1
Cc1ccc2c(c1)c1cc(C(=O)N3CCCC(O)C3)ccc1n2-c1ccc(C(F)(F)F)cc1 (stereo not drawn) [Compound 50, 1-{6-methyl-9-[4-(trifluoromethyl)phenyl]-9H-carbazole-3-carbonyl}piperidin-3-ol]	0.1 to 1	0.1 to 1
Cc1ccc2c(c1)c1cc(C(=O)NCc3ccccn3)ccc1n2-c1ccc(C(F)(F)F)cc1 [Compound 51, 6-methyl-N-[(pyridin-2-yl)methyl]-9-[4-(trifluoromethyl)phenyl]-9H-carbazole-3-carboxamide]	0.1 to 1	0.1 to 1
Cc1ccc2c(c1)c1cc(C(=O)NCc3cccnc3)ccc1n2-c1ccc(C(F)(F)F)cc1 [Compound 52, 6-methyl-N-[(pyridin-3-yl)methyl]-9-[4-(trifluoromethyl)phenyl]-9H-carbazole-3-carboxamide]	0.1 to 1	0.001 to 0.1
Cc1ccc2c(c1)c1cc(C(=O)NCc3ccncn3)ccc1n2-c1ccc(C(F)(F)F)cc1 [Compound 53, 6-methyl-N-[(pyrimidin-4-yl)methyl]-9-[4-(trifluoromethyl)phenyl]-9H-carbazole-3-carboxamide]	0.01 to 0.1	0.001 to 0.1
Cc1ccc2c(c1)c1cc(C(=O)NC3(CO)CCC3)ccc1n2-c1ccc(C(F)(F)F)cc1 [Compound 54, N-[1-(hydroxymethyl)cyclobutyl]-6-methyl-9-[4-(trifluoromethyl)phenyl]-9H-carbazole-3-carboxamide]	0.1 to 1	0.1 to 1
Cc1ccc2c(c1)c1cc(C(=O)NCC(O)CO)ccc1n2-c1ccc(C(F)(F)F)cc1 (stereo not drawn) [Compound 55, N-(2,3-dihydroxypropyl)-6-methyl-9-[4-(trifluoromethyl)phenyl]-9H-carbazole-3-carboxamide]	0.01 to 0.1	0.001 to 0.1
Cc1ccc2c(c1)c1cc(C(=O)N[C@@H](CO)C3CCC3)ccc1n2-c1ccc(C(F)(F)F)cc1 [Compound 56, N-[(1R)-1-cyclobutyl-2-hydroxyethyl]-6-methyl-9-[4-(trifluoromethyl)phenyl]-9H-carbazole-3-carboxamide]	0.01 to 0.1	0.001 to 0.1
Cc1ccc2c(c1)c1cc(C(=O)N[C@H]3COC[C@@H]3O)ccc1n2-c1ccc(C(F)(F)F)cc1 [Compound 57, N-[(3S,4R)-4-hydroxyoxolan-3-yl]-6-methyl-9-[4-(trifluoromethyl)phenyl]-9H-carbazole-3-carboxamide]	0.1 to 1	0.1 to 1
Cc1ccc2c(c1)c1cc(C(=O)N[C@H](c3ccccc3)[C@H](C)O)ccc1n2-c1ccc(C(F)(F)F)cc1 [Compound 58, N-[(1R,2S)-2-hydroxy-1-phenylpropyl]-6-methyl-9-[4-(trifluoromethyl)phenyl]-9H-carbazole-3-carboxamide]	0.1 to 1	0.1 to 1
Cc1ccc2c(c1)c1cc(C(=O)NCc3ccncc3)ccc1n2-c1ccc(C(F)(F)F)cc1 [Compound 59, 6-methyl-N-[(pyridin-4-yl)methyl]-9-[4-(trifluoromethyl)phenyl]-9H-carbazole-3-carboxamide]	0.01 to 0.1	0.1 to 1
COCCC(CO)NC(=O)c1ccc2c(c1)c1cc(C)ccc1n2-c1ccc(C(F)(F)F)cc1 (stereo not drawn) [Compound 61, N-(1-hydroxy-4-methoxybutan-2-yl)-6-methyl-9-[4-(trifluoromethyl)phenyl]-9H-carbazole-3-carboxamide]	0.1 to 1	0.1 to 1
Cc1cc2c3cc(C(=O)O)ccc3n(-c3ccc(C(F)(F)F)cc3)c2cc1C [Compound 62, 6,7-dimethyl-9-[4-(trifluoromethyl)phenyl]-9H-carbazole-3-carboxylic acid]	0.001 to 0.01	0.1 to 1
Cc1ccc2c(c1)c1cc(C(=O)O)ccc1n2-c1ccc(OC(F)(F)F)cc1 [Compound 63, 6-methyl-9-[4-(trifluoromethoxy)phenyl]-9H-carbazole-3-carboxylic acid]	0.001 to 0.01	1 to 10
